In paper PMC10425210 (The Journal of Clinical Investigation, 2023):
Like-named read-outs stand apart in the source and are kept apart here.

System: SHIV-SF162P3
Type: in vivo, rhesus macaques

Compound: CC(C)(C#Cc1ccc(-c2ccc(Cl)c3c(NS(C)(=O)=O)nn(CC(F)(F)F)c23)c([C@H](Cc2cc(F)cc(F)c2)NC(=O)Cn2nc(C(F)(F)F)c3c2C(F)(F)[C@@H]2C[C@H]32)n1)S(C)(=O)=O [LEN, Lenacapavir]
- time of measurable anti-capsid (p27) antibodies (3 animals positive for SHIV by qPCR): ≤ 4 week after challenge
- first detectable intact SHIV DNA (3 animals with confirmed viremia): 2 week after challenge
- animals becoming infected (LEN exposure above the 70 nM target at challenge): 0 of 6
- Animal number, Infected (LEN-dosed <target (70 nM)): 3
- Animal number, Uninfected (LEN-dosed <target (70 nM)): 2
- Animal number, Infected (LEN-dosed >target (70 nM)): 0
- Animal number, Uninfected (LEN-dosed >target (70 nM)): 6
- Animal number, Infected (LEN-dosed total): 3
- Animal number, Uninfected (LEN-dosed total): 8
- Challenge outcome (animal BM55, 20 mg/kg): Infected
- Intact SHIV DNA / 10M PBMC (animal BM55, 20 mg/kg, Wk 2 post challenge): 145.35 / 10M PBMC
- Plasma SHIV RNA (animal BM55, 20 mg/kg, week 6 post challenge): 7809 copies per mL
- Plasma SHIV RNA (animal BM55, 20 mg/kg, week 7 post challenge): 4541 copies per mL
- Plasma SHIV RNA (animal BM55, 20 mg/kg, week 8 post challenge): 69 copies per mL
- Plasma SHIV RNA (animal BM55, 20 mg/kg, week 9 post challenge): 62 copies per mL
- Plasma SHIV RNA (animal BM55, 20 mg/kg, week 10 post challenge): 62 copies per mL
- Challenge outcome (animal BN33, 20 mg/kg): Not infected
- Intact SHIV DNA / 10M PBMC (animal BN33, 20 mg/kg, Wk 2 post challenge): 1 / 10M PBMC
- Intact SHIV DNA / 10M PBMC (animal BN33, 20 mg/kg, Wk 10 post challenge): 1 / 10M PBMC
- Plasma SHIV RNA (animal BN33, 20 mg/kg, week 6 post challenge): 62 copies per mL
- Plasma SHIV RNA (animal BN33, 20 mg/kg, week 7 post challenge): 62 copies per mL
- Plasma SHIV RNA (animal BN33, 20 mg/kg, week 8 post challenge): 62 copies per mL
- Plasma SHIV RNA (animal BN33, 20 mg/kg, week 9 post challenge): 62 copies per mL
- Plasma SHIV RNA (animal BN33, 20 mg/kg, week 10 post challenge): 62 copies per mL
- Challenge outcome (animal CP67, 75 mg/kg): Not infected
- Intact SHIV DNA / 10M PBMC (animal CP67, 75 mg/kg, Wk 2 post challenge): 1 / 10M PBMC
- Intact SHIV DNA / 10M PBMC (animal CP67, 75 mg/kg, Wk 10 post challenge): 1 / 10M PBMC
- Plasma SHIV RNA (animal CP67, 75 mg/kg, week 0 post challenge): 62 copies per mL
- Plasma SHIV RNA (animal CP67, 75 mg/kg, week 1 post challenge): 62 copies per mL
- Plasma SHIV RNA (animal CP67, 75 mg/kg, week 2 post challenge): 62 copies per mL
- Challenge outcome (animal V229, 20 mg/kg): Infected
- Intact SHIV DNA / 10M PBMC (animal V229, 20 mg/kg, Wk 2 post challenge): 398.25 / 10M PBMC
- Plasma SHIV RNA (animal V229, 20 mg/kg, week 6 post challenge): 189 copies per mL
- Plasma SHIV RNA (animal V229, 20 mg/kg, week 7 post challenge): 79 copies per mL
- Plasma SHIV RNA (animal V229, 20 mg/kg, week 8 post challenge): 69 copies per mL
- Plasma SHIV RNA (animal V229, 20 mg/kg, week 9 post challenge): 62 copies per mL
- Plasma SHIV RNA (animal V229, 20 mg/kg, week 10 post challenge): 62 copies per mL
- Challenge outcome (animal V411, 50 mg/kg): Not infected
- Intact SHIV DNA / 10M PBMC (animal V411, 50 mg/kg, Wk 2 post challenge): 1 / 10M PBMC
- Intact SHIV DNA / 10M PBMC (animal V411, 50 mg/kg, Wk 10 post challenge): 1 / 10M PBMC
- Plasma SHIV RNA (animal V411, 50 mg/kg, week 0 post challenge): 62 copies per mL
- Plasma SHIV RNA (animal V411, 50 mg/kg, week 1 post challenge): 62 copies per mL
- Plasma SHIV RNA (animal V411, 50 mg/kg, week 2 post challenge): 62 copies per mL
- Plasma SHIV RNA (animal V411, 50 mg/kg, week 3 post challenge): 62 copies per mL
- Plasma SHIV RNA (animal V411, 50 mg/kg, week 4 post challenge): 62 copies per mL
- Plasma SHIV RNA (animal V411, 50 mg/kg, week 5 post challenge): 62 copies per mL
- Plasma SHIV RNA (animal V411, 50 mg/kg, week 6 post challenge): 62 copies per mL
- Plasma SHIV RNA (animal V411, 50 mg/kg, week 7 post challenge): 62 copies per mL
- Plasma SHIV RNA (animal V411, 50 mg/kg, week 8 post challenge): 62 copies per mL
- Plasma SHIV RNA (animal V411, 50 mg/kg, week 9 post challenge): 62 copies per mL
- Plasma SHIV RNA (animal V411, 50 mg/kg, week 10 post challenge): 62 copies per mL
- Plasma SHIV RNA (animal V411, 50 mg/kg, week 11 post challenge): 62 copies per mL
- Plasma SHIV RNA (animal V411, 50 mg/kg, week 12 post challenge): 62 copies per mL
- Plasma SHIV RNA (animal V411, 50 mg/kg, week 13 post challenge): 62 copies per mL
- Plasma SHIV RNA (animal V411, 50 mg/kg, week 14 post challenge): 62 copies per mL
- Plasma SHIV RNA (animal V411, 50 mg/kg, week 15 post challenge): 62 copies per mL
- Plasma SHIV RNA (animal V411, 50 mg/kg, week 16 post challenge): 62 copies per mL
- Plasma SHIV RNA (animal V411, 50 mg/kg, week 17 post challenge): 62 copies per mL
- Plasma SHIV RNA (animal V411, 50 mg/kg, week 18 post challenge): 62 copies per mL
- Challenge outcome (animal V417, 75 mg/kg): Not infected
- Intact SHIV DNA / 10M PBMC (animal V417, 75 mg/kg, Wk 2 post challenge): 1 / 10M PBMC
- Intact SHIV DNA / 10M PBMC (animal V417, 75 mg/kg, Wk 10 post challenge): 1 / 10M PBMC
- Plasma SHIV RNA (animal V417, 75 mg/kg, week 0 post challenge): 62 copies per mL
- Plasma SHIV RNA (animal V417, 75 mg/kg, week 1 post challenge): 62 copies per mL
- Plasma SHIV RNA (animal V417, 75 mg/kg, week 2 post challenge): 62 copies per mL
- Challenge outcome (animal V426, 75 mg/kg): Not infected
- Intact SHIV DNA / 10M PBMC (animal V426, 75 mg/kg, Wk 2 post challenge): 1 / 10M PBMC
- Intact SHIV DNA / 10M PBMC (animal V426, 75 mg/kg, Wk 10 post challenge): 1 / 10M PBMC
- Plasma SHIV RNA (animal V426, 75 mg/kg, week 0 post challenge): 62 copies per mL
- Plasma SHIV RNA (animal V426, 75 mg/kg, week 1 post challenge): 62 copies per mL
- Plasma SHIV RNA (animal V426, 75 mg/kg, week 2 post challenge): 62 copies per mL
- Plasma SHIV RNA (animal V426, 75 mg/kg, week 3 post challenge): 62 copies per mL
- Challenge outcome (animal V430, 50 mg/kg): Not infected
- Intact SHIV DNA / 10M PBMC (animal V430, 50 mg/kg, Wk 2 post challenge): 1 / 10M PBMC
- Intact SHIV DNA / 10M PBMC (animal V430, 50 mg/kg, Wk 10 post challenge): 1 / 10M PBMC
- Plasma SHIV RNA (animal V430, 50 mg/kg, week 0 post challenge): 62 copies per mL
